Numbers after ± are expanded uncertainties.

Data set [1] is described as follows: activity coefficient (dimensionless); of the first substance listed, at infinite dilution; xn = mol fraction of the nth substance listed. The settings on record: Liquid, x1 = 0.
The conditions of data set [2]: Liquid, Closed cell (Static) method.

As to `CCC` [propane] + C1CCOCC1, the activity coefficient in data set [1] (250.06 K, Chromatography) was found to be 2.08 ± 0.09; in data set [1] (270.12 K, Chromatography) it was 1.98 ± 0.09; in data set [1] (289.97 K, Chromatography) it was 1.9 ± 0.08; in data set [1] (309.98 K, Chromatography) it was 1.84 ± 0.08; in data set [1] (329.97 K, Chromatography), 1.79 ± 0.08.

Consider `C/C=C\C` [(Z)-2-butene] + C1CCOCC1, for which the activity coefficient in data set [1] (250 K, Chromatography) amounted to 1.36 ± 0.05; in data set [1] (270.07 K, Chromatography), 1.33 ± 0.05; in data set [1] (289.98 K, Chromatography) it was 1.32 ± 0.05; in data set [1] (309.98 K, Chromatography) it was 1.31 ± 0.05; in data set [1] (330 K, Chromatography), 1.32 ± 0.05.

Take `C=C(C)C` [2-methylpropene] + C1CCOCC1: the activity coefficient in data set [1] (250.06 K, Chromatography) amounted to 1.39 ± 0.05; in data set [1] (270.12 K, Chromatography), 1.39 ± 0.05; in data set [1] (289.97 K, Chromatography) it was 1.38 ± 0.05; in data set [1] (309.98 K, Chromatography), 1.38 ± 0.05; in data set [1] (329.97 K, Chromatography), 1.37 ± 0.05.

As for `CCCl` [chloroethane] + C1CCOCC1, the activity coefficient in data set [1] (250 K, Chromatography) came out at 0.9 ± 0.03; in data set [1] (270.07 K, Chromatography), 0.89 ± 0.03; in data set [1] (289.98 K, Chromatography) it was 0.89 ± 0.03; in data set [1] (309.98 K, Chromatography), 0.94 ± 0.03; in data set [1] (330 K, Chromatography), 0.98 ± 0.03.

As for `CCCC` [butane] + C1CCOCC1, the activity coefficient in data set [1] (250.06 K, Chromatography) came out at 2.04 ± 0.09; in data set [1] (270.12 K, Chromatography), 1.94 ± 0.09; in data set [1] (289.97 K, Chromatography), 1.85 ± 0.08; in data set [1] (309.98 K, Chromatography) it was 1.78 ± 0.08; in data set [1] (329.97 K, Chromatography), 1.72 ± 0.07.

As to `C/C=C/C` [(E)-2-butene] + C1CCOCC1, the activity coefficient came out at 1.43 ± 0.05 in data set [1] (250.06 K, Chromatography); 1.41 ± 0.05 in data set [1] (270.12 K, Chromatography); 1.4 ± 0.05 in data set [1] (289.97 K, Chromatography); 1.4 ± 0.05 in data set [1] (309.98 K, Chromatography); 1.4 ± 0.05 in data set [1] (329.97 K, Chromatography).

For `CC(F)F` [1,1-difluoroethane] + C1CCOCC1, the activity coefficient in data set [1] (250.06 K, Chromatography) amounted to 1.57 ± 0.06; in data set [1] (270.12 K, Chromatography), 1.64 ± 0.07; in data set [1] (289.97 K, Chromatography) it was 1.67 ± 0.07; in data set [1] (309.98 K, Chromatography), 1.69 ± 0.07; in data set [1] (329.97 K, Chromatography), 1.66 ± 0.07.

Consider `C=CC=C` [1,3-butadiene] + C1CCOCC1, for which the activity coefficient in data set [1] (250.06 K, Chromatography) was determined as 0.95 ± 0.03; in data set [1] (270.12 K, Chromatography) it was 0.97 ± 0.03; in data set [1] (289.97 K, Chromatography), 1.01 ± 0.03; in data set [1] (309.98 K, Chromatography), 1.05 ± 0.03; in data set [1] (329.97 K, Chromatography), 1.09 ± 0.03.

For `COC` [dimethyl ether] + C1CCOCC1, the activity coefficient in data set [1] (250 K, Chromatography) was found to be 1.29 ± 0.04; in data set [1] (270.07 K, Chromatography), 1.26 ± 0.04; in data set [1] (289.98 K, Chromatography), 1.26 ± 0.04; in data set [1] (309.98 K, Chromatography), 1.26 ± 0.04; in data set [1] (330 K, Chromatography), 1.26 ± 0.04.

Take `CCCCCC` [hexane] + C1CCOCC1: the activity coefficient is 1.76 ± 0.07 in data set [1] (290 K, Chromatography); 1.71 ± 0.07 in data set [1] (299.89 K, Chromatography); 1.67 ± 0.07 in data set [1] (309.98 K, Chromatography); 1.65 ± 0.07 in data set [1] (319.99 K, Chromatography); 1.61 ± 0.06 in data set [1] (330.02 K, Chromatography).

Regarding `C=CCC` [1-butene] + C1CCOCC1, the activity coefficient in data set [1] (250.06 K, Gas Stripping Method) turned out to be 1.39 ± 0.01; in data set [1] (270.12 K, Gas Stripping Method) it was 1.39 ± 0.01; in data set [1] (289.97 K, Gas Stripping Method), 1.38 ± 0.01; in data set [1] (309.98 K, Gas Stripping Method) it was 1.38 ± 0.01; in data set [1] (329.97 K, Gas Stripping Method), 1.38 ± 0.01.

`CC(C)C` [2-methylpropane] + C1CCOCC1: the activity coefficient in data set [1] (250.06 K, Chromatography) is 2.14 ± 0.1; in data set [1] (270.12 K, Chromatography), 2.04 ± 0.09; in data set [1] (289.97 K, Chromatography), 1.94 ± 0.09; in data set [1] (309.98 K, Chromatography), 1.88 ± 0.08; in data set [1] (329.97 K, Chromatography), 1.82 ± 0.08.

Turning to `C1CCOCC1` [tetrahydropyran], the “vapor or sublimation pressure” value was 0.98 ± 0.01 kPa in data set [2] (257.96 K); 1.13 ± 0.01 kPa in data set [2] (260.07 K); 2.16 ± 0.02 kPa in data set [2] (270.28 K); 3.7 ± 0.02 kPa in data set [2] (279.82 K); 6.28 ± 0.02 kPa in data set [2] (289.94 K); 6.3 ± 0.02 kPa in data set [2] (290 K). The “vapor or sublimation pressure” value in data set [2] (300.01 K) is 10.23 ± 0.04 kPa; in data set [2] (332.98 K), 40 ± 0.1 kPa; in data set [2] (341.09 K), 53.33 ± 0.12 kPa; in data set [2] (347.72 K), 66.66 ± 0.15 kPa; in data set [2] (353.38 K), 79.99 ± 0.18 kPa; in data set [2] (358.37 K), 93.33 ± 0.21 kPa. The “vapor or sublimation pressure” value in data set [2] (360.22 K) worked out at 98.66 ± 0.22 kPa.

For the compound `C=CC` [propene] + C1CCOCC1, the activity coefficient in data set [1] (250.06 K, Chromatography) came out at 1.42 ± 0.05; in data set [1] (270.12 K, Chromatography), 1.42 ± 0.05; in data set [1] (289.97 K, Chromatography), 1.43 ± 0.05; in data set [1] (309.98 K, Chromatography), 1.44 ± 0.05; in data set [1] (329.97 K, Chromatography), 1.44 ± 0.05.

A word on the vapor or sublimation pressure: it is the equilibrium pressure above the liquid or solid.

The record behind these values is the NIST ThermoML archive (doi:10.1021/je700270d).
